Reference: patent US20140107109A1, “AMINO-DIHYDROTHIAZINE AND AMINO-DIOXIDO DIHYDROTHIAZINE COMPOUNDS AS BETA-SECRETASE ANTAGONISTS AND METHODS OF USE” (Amgen Inc., priority 2012, published 2014)
Where two headings read alike, the source gives them in different places.

Key:
[1] = molecular target: Beta Secretase enzyme (BACE1) (Homo sapiens, UniProt P56817); assay: In vitro enzymatic BACE FRET assay; format: biochemical; settings: read-out: BACE1 FRET assay IC50
Outline: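 BACE1 cleavage of a 50 nM fluorophore/quencher peptide FRET substrate ran for one hour in 0.05 M acetate pH 4.2, 10% DMSO, 100 uM genapol. Tris buffer raised pH to neutrality to stop the reaction before fluorescence was read (excitation 488 nm, […]).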

[2] = molecular target: T1, Cathepsin D (Cat D) (Homo sapiens, UniProt P07339); assay: In vitro enzymatic Cathepsin D (Cat D) FRET assay; format: biochemical; settings: read-out: CatD IC50
T1 construct: Recombinant Cat D was expressed in CHO cells; made in house; host or cells: CHO cells
T1 sequence (P07339 65-412, species assumed): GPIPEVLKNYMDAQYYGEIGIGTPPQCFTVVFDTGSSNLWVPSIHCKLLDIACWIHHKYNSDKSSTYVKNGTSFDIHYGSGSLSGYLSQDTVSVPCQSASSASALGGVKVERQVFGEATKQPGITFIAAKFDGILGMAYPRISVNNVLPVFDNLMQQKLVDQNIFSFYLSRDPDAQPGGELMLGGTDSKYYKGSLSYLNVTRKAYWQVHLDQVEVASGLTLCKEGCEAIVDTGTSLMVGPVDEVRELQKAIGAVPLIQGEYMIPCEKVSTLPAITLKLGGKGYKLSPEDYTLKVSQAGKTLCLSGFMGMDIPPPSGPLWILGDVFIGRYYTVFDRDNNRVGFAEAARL
Outline: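 Recombinant Cat D expressed in CHO cells, used at 9 nM and pre-incubated one hour with serially diluted inhibitor in DMSO. Peptide substrate carries a fluorophore and quencher flanking the cleavage site; reaction stopped with Tris buffer raising pH to neutrality, then fluorescence read.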

[3] = test system: Aβ40 in conditioned medium of cells stably expressing Amyloid Precursor Protein (APP); assay: In vitro BACE cell-based assay (HEK cell assay), Aβ40 sandwich ELISA; settings: Homo sapiens, HEK293
Outline: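 APP-stably expressing cells (40K/well, grown 24 h in DMEM/10% FBS) were treated 24 h with compounds in 10-point dose response starting at 100 μM or 10 μM, 0.1% DMSO final. Secreted Aβ40 was measured by sandwich ELISA (pAb40 capture, biotinylated 6E10 detection, europium time-resolved fluorescence); IC50 from percent inhibition.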

Sequence of Beta Secretase enzyme (BACE1) (P56817 46-501): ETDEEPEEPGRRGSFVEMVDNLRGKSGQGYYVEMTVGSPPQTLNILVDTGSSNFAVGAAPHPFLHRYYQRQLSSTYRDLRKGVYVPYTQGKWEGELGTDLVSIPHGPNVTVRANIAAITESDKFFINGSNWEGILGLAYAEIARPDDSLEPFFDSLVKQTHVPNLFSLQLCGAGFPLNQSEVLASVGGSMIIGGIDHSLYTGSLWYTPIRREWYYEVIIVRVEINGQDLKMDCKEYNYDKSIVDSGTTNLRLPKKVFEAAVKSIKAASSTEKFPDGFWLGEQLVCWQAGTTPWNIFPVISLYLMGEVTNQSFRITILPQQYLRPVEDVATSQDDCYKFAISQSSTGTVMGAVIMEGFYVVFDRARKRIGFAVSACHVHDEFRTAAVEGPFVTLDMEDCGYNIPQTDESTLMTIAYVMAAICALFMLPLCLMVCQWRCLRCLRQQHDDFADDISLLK

IC50 [1] [µM] | IC50 [2] [µM] | IC50 ([1]; average IC50, enzyme assay) [µM] | SMILES | further results
0.0011 | 630 |  | Cc1cc(OCC(F)(F)F)cnc1C(=O)Nc1ccc(F)c([C@]2(CF)CS(=O)(=O)C3(CCC3)C(N)=N2)c1 [Example 374, N-(3-((7S)-9-amino-7-(fluoromethyl)-5,5-dioxido-5-thia-8-azaspiro[3.5]non-8-en-7-yl)-4-fluorophenyl)-3-methyl-5-(2,2,2-trifluoroethoxy)-2-pyridinecarboxamide] | IC50 [3]: 0.0616 µM
0.0004 | 230 |  | Cc1cc(Cl)cnc1C(=O)Nc1ccc(F)c([C@]2(C)CS(=O)(=O)[C@@](C)(F)C(N)=N2)c1 [Example 388, N-(3-((3R,6R)-5-amino-6-fluoro-3,6-dimethyl-1,1-dioxido-3,6-dihydro-2H-1,4-thiazin-3-yl)-4-fluorophenyl)-5-chloro-3-methyl-2-pyridinecarboxamide] | IC50 [3]: 0.0479 µM
 | > 1.65 | 0.00382 | CCOc1cnc2c(Nc3ccc(F)c([C@]4(CF)CS(=O)(=O)C5(CCC5)C(N)=N4)c3)ncc(F)c2c1 [Example 438, N-(3-((7S)-9-amino-7-(fluoromethyl)-5,5-dioxido-5-thia-8-azaspiro[3.5]non-8-en-7-yl)-4-fluorophenyl)-3-ethoxy-5-fluoro-1,7-naphthyridin-8-amine] | IC50 ([3]; average IC50, cell assay): 0.198 µM
 | 113 | 0.00061 | CC1(C)C(N)=N[C@](C)(c2cc(NC(=O)c3ccc(C(F)(F)F)cn3)ccc2F)CS1(=O)=O [Example 342, N-(3-((3R)-5-amino-3,6,6-trimethyl-1,1-dioxido-3,6-dihydro-2H-1,4-thiazin-3-yl)-4-fluorophenyl)-5-(trifluoromethyl)-2-pyridinecarboxamide] | IC50 ([3]; average IC50, HEK cell assay): 0.0007 µM
0.0033 | 388 |  | COc1cnc2c(Nc3ccc(F)c([C@]4(C)CS(=O)(=O)[C@@](C)(F)C(N)=N4)c3)nccc2n1 [Example 59, N-(3-((3R,6R)-5-amino-6-fluoro-3,6-dimethyl-1,1-dioxido-3,6-dihydro-2H-1,4-thiazin-3-yl)-4-fluorophenyl)-2-methoxypyrido[3,4-b]pyrazin-5-amine] | IC50 ([3]; Aβ40, 24 h incubation): 0.178 µM
0.00409 | 54.7 |  | C[C@@]1(c2cc(Nc3nccc4cc(C#N)cnc34)cnc2F)CS(=O)(=O)C2(CCC2)C(N)=N1 [Example 386, 8-((5-((7R)-9-amino-7-methyl-5,5-dioxido-5-thia-8-azaspiro[3.5]non-8-en-7-yl)-6-fluoro-3-pyridinyl)amino)-1,7-naphthyridine-3-carbonitrile] | IC50 [3]: 0.0141 µM
0.0099 | 357 |  | COc1cnc2c(Nc3ccc(F)c([C@@]4(C)N=C(N)C(C)(C)S(=O)(=O)[C@@H]4F)c3)nccc2c1 [Example 44, (2S,3R)-5-Amino-2-fluoro-3-(2-fluoro-5-((3-methoxy-1,7-naphthyridin-8-yl)amino)phenyl)-3,6,6-trimethyl-3,6-dihydro-2H-1,4-thiazine 1,1-dioxide] | IC50 ([3]; Aβ40, 24 h incubation): 0.0604 µM
 | 437 | 0.0008 | CC1(C)C(N)=N[C@](CF)(c2cc(NC(=O)c3ccc(C(F)F)cn3)ccc2F)CS1(=O)=O [Example 361, N-(3-((3S)-5-amino-3-(fluoromethyl)-6,6-dimethyl-1,1-dioxido-3,6-dihydro-2H-1,4-thiazin-3-yl)-4-fluorophenyl)-5-(difluoromethyl)-2-pyridinecarboxamide] | IC50 ([3]; average IC50, HEK cell assay): 0.0193 µM
0.0018 | > 400 |  | COc1cc(Cl)cnc1C(=O)Nc1ccc(F)c([C@]2(CF)CS(=O)(=O)C(C)(C)C(N)=N2)c1 [Example 382, N-(3-((3S)-5-amino-3-(fluoromethyl)-6,6-dimethyl-1,1-dioxido-3,6-dihydro-2H-1,4-thiazin-3-yl)-4-fluorophenyl)-5-chloro-3-methoxy-2-pyridinecarboxamide] | IC50 [3]: 0.0173 µM
0.0016 | > 400 |  | CC1(C)C(N)=N[C@](CF)(c2cc(NC(=O)c3ncc(F)cc3F)ccc2F)CS1(=O)=O [Example 378, N-(3-((3S)-5-amino-3-(fluoromethyl)-6,6-dimethyl-1,1-dioxido-3,6-dihydro-2H-1,4-thiazin-3-yl)-4-fluorophenyl)-3,5-difluoro-2-pyridinecarboxamide] | IC50 [3]: 0.018 µM
0.0149 | 50.9 |  | COc1cnc(C(=O)Nc2ccc(F)c([C@]3(C)CS(=O)(=O)CC(N)=N3)c2)cn1 [Example 28, N-(3-((3R)-5-amino-3-methyl-1,1-dioxido-3,6-dihydro-2H-1,4-thiazin-3-yl)-4-fluorophenyl)-5-methoxy-2-pyrazinecarboxamide] | IC50 ([3]; Aβ40, 24 h incubation): 0.068 µM
 | 636 | 0.00299 | Cc1cnc(C(=O)Nc2ccc(F)c([C@]3(CF)CS(=O)(=O)C(C)(C)C(N)=N3)c2)c(C)c1 [Example 360, N-(3-((3S)-5-amino-3-(fluoromethyl)-6,6-dimethyl-1,1-dioxido-3,6-dihydro-2H-1,4-thiazin-3-yl)-4-fluorophenyl)-3,5-dimethyl-2-pyridinecarboxamide] | IC50 ([3]; average IC50, HEK cell assay): 0.0245 µM
 | > 133 | 0.0013 | C[C@]1(F)C(N)=N[C@](C)(c2cc(Nc3nccc4nc(C(F)(F)F)cnc34)ccc2F)CS1(=O)=O [Example 423, N-(3-((3R,6R)-5-amino-6-fluoro-3,6-dimethyl-1,1-dioxido-3,6-dihydro-2H-1,4-thiazin-3-yl)-4-fluorophenyl)-2-(trifluoromethyl)pyrido[3,4-b]pyrazin-5-amine] | IC50 ([3]; average IC50, cell assay): 0.735 µM
 | 55.6 |  | C[C@]1(c2cc(NC(=O)c3ccc(Cl)cn3)ccc2F)N=C(N)C2(CC2)S(=O)(=O)[C@@H]1F [Example 200, N-(3-((5S,6R)-8-amino-5-fluoro-6-methyl-4,4-dioxido-4-thia-7-azaspiro[2.5]oct-7-en-6-yl)-4-fluorophenyl)-5-chloro-2-pyridinecarboxamide] | IC50 ([1]; average IC50): 0.0013 µM; IC50 ([3]; average IC50, HEK cells): 0.0039 µM
 | 4060 | 0.00303 | Cc1c(C(=O)Nc2ccc(F)c([C@]3(CF)CS(=O)(=O)C(C)(C)C(N)=N3)c2)nc2ccc(Cl)cn12 [Example 158, (S)—N-(3-(5-amino-3-(fluoromethyl)-6,6-dimethyl-1,1-dioxido-3,6-dihydro-2H-1,4-thiazin-3-yl)-4-fluorophenyl)-6-chloro-3-methylimidazo[1,2-a]pyridine-2-carboxamide] | IC50 ([3]; average IC50, cell assay): 0.0106 µM
 | 858 | 0.0005 | CC1(C)C(N)=N[C@](CF)(c2cc(NC(=O)c3cnc(OCC(F)F)cn3)ccc2F)CS1(=O)=O [Example 364, N-(3-((3S)-5-amino-3-(fluoromethyl)-6,6-dimethyl-1,1-dioxido-3,6-dihydro-2H-1,4-thiazin-3-yl)-4-fluorophenyl)-5-(2,2-difluoroethoxy)-2-pyrazinecarboxamide] | IC50 ([3]; average IC50, HEK cell assay): 0.0214 µM
 | 282 | 0.127 | CC1(C)C(N)=N[C@](C)(c2cc(Oc3nccc4cc(Cl)cnc34)ccc2F)CS1(=O)=O [Example 304, (5R)-5-(5-((3-chloro-1,7-naphthyridin-8-yl)oxy)-2-fluorophenyl)-2,2,5-trimethyl-5,6-dihydro-2H-1,4-thiazin-3-amine 1,1-dioxide] | IC50 ([3]; average IC50, HEK cell assay): 0.198 µM

SMILES | IC50 [1] [µM] | IC50 [2] [µM] | IC50 ([1]; average IC50, enzyme assay) [µM] | further results
COc1cnc(C(=O)Nc2ccc(F)c([C@]3(C(F)F)CS(=O)(=O)C(C)(C)C(N)=N3)c2)cn1 [Example 36, (S)—N-(3-(5-amino-3-(difluoromethyl)-6,6-dimethyl-1,1-dioxido-3,6-dihydro-2H-1,4-thiazin-3-yl)-4-fluorophenyl)-5-methoxypyrazine-2-carboxamide] | 0.0202 | > 400 |  | IC50 ([3]; Aβ40, 24 h incubation): 0.765 µM
